According to patent US20260092061A1, “COMPOUNDS FOR TARGETED PROTEIN DEGRADATION” (Amphista Therapeutics Limited, priority 2022, published 2026):
Read-outs that look alike come from different tables or passages of the source.

Columns and labels:
Assay type in all cases: cell-based
BRD9 [1] = molecular target: T1, BRD9 (Homo sapiens, UniProt Q9H8M2); assay: BRD9 degradation, HiBiT-BRD9 KI HEK293 (LgBiT) cells, NanoGlo Lytic Endpoint assay (Assay Protocol 1); conditions: Table 3; assay 1; 5 h of treatment
T1 sequence (Q9H8M2 1-597): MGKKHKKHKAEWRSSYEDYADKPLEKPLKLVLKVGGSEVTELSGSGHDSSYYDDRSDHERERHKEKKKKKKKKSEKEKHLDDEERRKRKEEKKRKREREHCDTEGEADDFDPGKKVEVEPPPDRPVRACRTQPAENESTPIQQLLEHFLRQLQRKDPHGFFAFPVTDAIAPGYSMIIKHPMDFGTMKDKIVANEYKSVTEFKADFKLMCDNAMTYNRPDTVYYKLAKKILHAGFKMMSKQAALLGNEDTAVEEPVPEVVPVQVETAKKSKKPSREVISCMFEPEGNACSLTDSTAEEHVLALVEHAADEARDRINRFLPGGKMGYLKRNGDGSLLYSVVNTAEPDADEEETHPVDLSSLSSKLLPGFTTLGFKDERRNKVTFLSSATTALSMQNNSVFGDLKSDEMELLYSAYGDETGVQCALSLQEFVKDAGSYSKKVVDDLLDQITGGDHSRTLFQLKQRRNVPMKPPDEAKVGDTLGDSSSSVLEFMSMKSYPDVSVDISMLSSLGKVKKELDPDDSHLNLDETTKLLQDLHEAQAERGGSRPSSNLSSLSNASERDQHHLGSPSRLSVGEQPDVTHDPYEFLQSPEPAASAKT

BRD9 [2] = molecular target: T1, BRD9; assay: as above; conditions: for Dmax at 1 µM: HEK293; for DC50: 6 h of treatment, read-out: Assay 1 DC50
Method in brief: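 HiBiT-tagged BRD9 knock-in HEK293 (LgBiT) cells exposed to compounds for 6 h at 37 °C, 5% CO2. Residual BRD9 measured by HiBiT lytic luminescence. % BRD9 remaining normalised to DMSO-treated cells (high) and no-cell wells (low).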

BRD4 = molecular target: T2, BRD4 (Homo sapiens, UniProt O60885); assay: BRD4 degradation, HiBiT-BRD4 HEK293 CRISPR CPM cells, NanoGlo Lytic Endpoint assay (Assay Protocol 1); conditions: HEK293; Table 3; assay 1; 1 μM compound at 5 h of treatment
T2 construct: HiBiT-BRD4 HEK293 CRISPR CPM (Promega CS302312); host or cells: HEK293, CRISPR-edited (HiBiT at the BRD4 locus)

[3] = Table 2, BRD9 degradation, Assay Protocol 1, 1 μM compound at 6 h of treatment, read-out: Assay 1 Dmax
[4] = Table 3, assay 1, 1 μM compound at 5 h of treatment, read-out: BRD9 Dmax (%)
[5] = Table 2, BRD9 degradation, Assay Protocol 1

SMILES | DC50 (BRD9 [1]) | Dmax at 1 µM (BRD9 [2]; [3]) | Dmax at 1 µM (BRD9 [2]; [4]) | DC50 (BRD9 [2]; [5]) | Dmax (BRD4)
COc1cc(-c2cn(C)c(=O)c(C)c2C)cc(OC)c1CN1CC2CC(C1)N2Cc1cccc2c1CCN(C(=O)/C(C#N)=C/C(C)(C)C)C2C (mixture of isomers) [Compound A71, (E/Z)-2-(5-((3-(2,6-dimethoxy-4-(1,4,5-trimethyl-6-oxo-1,6-dihydropyridin-3-yl)benzyl)-3,6-diazabicyclo[3.1.1]heptan-6-yl)methyl)-1-methyl-1,2,3,4-tetrahydroisoquinoline-2-carbonyl)-4,4-dimethylpent-2-enenitrile] | 1.25 to 10 nM | 70 to 75% | 70 to 75% | 1.25 to 10 nM | 25 to 40%
COc1cc(-c2cn(C)c(=O)c(C)c2C)cc(OC)c1CN1CCCN(Cc2cccc3c2CCN(C(=O)/C(C#N)=C/C(C)(C)C)C3C)CC1 (mixture of isomers) [Compound A72, (E/Z)-2-(5-((4-(2,6-dimethoxy-4-(1,4,5-trimethyl-6-oxo-1,6-dihydropyridin-3-yl)benzyl)-1,4-diazepan-1-yl)methyl)-1-methyl-1,2,3,4-tetrahydroisoquinoline-2-carbonyl)-4,4-dimethylpent-2-enenitrile] | 10 to 25 nM | 70 to 75% | 70 to 75% | 10 to 25 nM | < 25%
